Measurements published in PubChem BioAssay (NCI).
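96-well plates; 48 h exposure; 5 concentrations. Endpoints by linear interpolation between flanking doses. Not reached: highest tested concentration assigned. Abbreviation: GI50, concentration required for 50% inhibition of growth. At the TGI there is no net growth.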

Assays:
Experiment in all cases: NCI anticancer screen, dose series, 48 h
[1] = system: IGROV1 ovarian
[2] = system: SK-OV-3 ovarian
[3] = system: SK-MEL-5 melanoma
[4] = system: DU-145 prostate
[5] = system: 786-0 renal
[6] = system: NCI/ADR-RES ovarian
[7] = system: OVCAR-8 ovarian
[8] = system: HCC-2998 colon
[9] = system: HT29 colon
[10] = system: ACHN renal
[11] = system: PC-3 prostate
[12] = system: LOX IMVI melanoma
[13] = system: SW-620 colon
[14] = system: RPMI-8226 leukemia
[15] = system: HOP-92 NSCLC
[16] = system: MOLT-4 leukemia
[17] = system: MALME-3M melanoma
[18] = system: HCT-116 colon
[19] = system: OVCAR-4 ovarian
[20] = system: SNB-75 CNS
[21] = system: OVCAR-3 ovarian
[22] = system: A498 renal
[23] = system: MCF7 breast
[24] = system: SK-MEL-2 melanoma
[25] = system: CCRF-CEM leukemia
[26] = system: A549 NSCLC
[27] = system: TK-10 renal
[28] = system: SNB-19 CNS
[29] = system: OVCAR-5 ovarian
[30] = system: U251 CNS
[31] = system: SK-MEL-28 melanoma
[32] = system: CAKI-1 renal
[33] = system: COLO 205 colon
[34] = system: NCI-H23 lung
[35] = system: KM12 colon
[36] = system: EKVX NSCLC
[37] = system: M14 melanoma
[38] = system: HCT-15 colon
[39] = system: SN12C renal
[40] = system: UO-31 renal
[41] = system: NCI-H522 lung
[42] = system: HOP-62 NSCLC
[43] = system: UACC-257 melanoma
[44] = system: NCI-H226 lung
[45] = system: MDA-N
[46] = system: UACC-62 melanoma
[47] = system: MDA-MB-435
[48] = system: MDA-MB-231 breast
[49] = system: HL-60(TB) leukemia
[50] = system: K-562 leukemia
[51] = system: T-47D breast
[52] = system: SF-295 CNS
[53] = system: NCI-H460 lung
[54] = system: SR leukemia
[55] = system: BT-549 breast
[56] = system: RXF 393 renal
[57] = system: SF-268 CNS
[58] = system: HS 578T breast
[59] = system: SF-539 CNS

## COc1cc(C(c2cc3c(cc2O)OCO3)N2CCCC2)cc(OC)c1OC (stereo not given)
[1]
  TGI: 27.8 µM
[2]
  TGI: > 100 µM
[3]
  TGI: 41.5 µM
[4]
  TGI: 36 µM
[5]
  TGI: 28.8 µM
[6]
  TGI: 56.4 µM
[7]
  TGI: 34 µM
[8]
  TGI: 88.1 µM
[9]
  TGI: 28 µM
[10]
  TGI: 28.8 µM
[11]
  TGI: 34.7 µM
[12]
  TGI: 31.9 µM
[13]
  TGI: > 100 µM
[14]
  TGI: 41.5 µM
[15]
  TGI: 20 µM
[16]
  TGI: 20.7 µM
[17]
  TGI: 20.7 µM
[18]
  TGI: 29.8 µM
[19]
  TGI: 34.2 µM
[20]
  TGI: 32.7 µM
[21]
  TGI: 34.9 µM
[22]
  TGI: 36.8 µM
[23]
  TGI: 63.8 µM
[24]
  TGI: 40 µM
[25]
  TGI: 5.95 µM
[26]
  TGI: 48.9 µM
[27]
  TGI: 37.5 µM
[28]
  TGI: 38.2 µM
[29]
  TGI: 89.7 µM
[30]
  TGI: 37.8 µM
[31]
  TGI: 41.4 µM
[32]
  TGI: 27 µM
[33]
  TGI: 26.5 µM
[34]
  TGI: 33.1 µM
[35]
  TGI: 37.2 µM
[36]
  TGI: 30 µM
[37]
  TGI: > 100 µM
[38]
  TGI: 29.2 µM
[39]
  TGI: 45.9 µM
[40]
  TGI: 28.1 µM
[41]
  TGI: 11.5 µM
[42]
  TGI: 97.5 µM
[43]
  TGI: 36.6 µM
[44]
  TGI: 33.8 µM
[45]
  TGI: 27.9 µM
[46]
  TGI: 33.9 µM
[47]
  TGI: 32.5 µM
[48]
  TGI: 31.3 µM
[49]
  TGI: 6.06 µM
[50]
  TGI: 21.1 µM
[51]
  TGI: 45.7 µM
[52]
  TGI: 36 µM

## Cc1ccc2ccccc2c1CC1S(=O)(=O)OCCOS1(=O)=O
[3]
  TGI: 26.4 µM
[4]
  TGI: 24.1 µM
[5]
  TGI: 30.3 µM
[6]
  TGI: 72.4 µM
[7]
  TGI: 37.1 µM
[8]
  TGI: 15.8 µM
[9]
  TGI: 27.1 µM
[10]
  TGI: 28.8 µM
[11]
  TGI: 24.3 µM
[12]
  TGI: 22.2 µM
[14]
  TGI: 32.3 µM
[16]
  TGI: 27.5 µM
[17]
  TGI: 25.2 µM
[18]
  TGI: 26 µM
[19]
  TGI: 23.6 µM
[21]
  TGI: 19.5 µM
[23]
  TGI: 23.1 µM
[53]
  TGI: 27.4 µM
[24]
  TGI: 37.9 µM
[54]
  TGI: 24.9 µM
[25]
  TGI: 27.1 µM
[26]
  TGI: 29.6 µM
[27]
  TGI: 31.1 µM
[28]
  TGI: 25.9 µM
[29]
  TGI: 24.4 µM
[30]
  TGI: 24.7 µM
[31]
  TGI: 32.8 µM
[32]
  TGI: 24.4 µM
[33]
  TGI: 6.1 µM
[34]
  TGI: 41 µM
[35]
  TGI: 29.3 µM
[36]
  TGI: 29.9 µM
[37]
  TGI: 28.7 µM
[38]
  TGI: 42.9 µM
[39]
  TGI: 23.7 µM
[40]
  TGI: 27.1 µM
[42]
  TGI: 28.5 µM
[43]
  TGI: 41.2 µM
[45]
  TGI: 22.2 µM
[47]
  TGI: 22 µM
[48]
  TGI: 29.1 µM
[49]
  TGI: 5.38 µM
[55]
  TGI: 25.7 µM
[50]
  TGI: 34 µM
[52]
  TGI: 27.4 µM

## COc1cc[nH]c1/C=C1\C(=O)Nc2ccc(F)c(C#CC3(O)CCOCC3)c21
[1]
  GI50: 0.86 µM
  TGI: > 7.18 µM
[2]
  GI50: 0.441 µM
  TGI: > 25 µM
[3]
  GI50: 0.497 µM
  TGI: 1.19 µM
[4]
  GI50: 0.806 µM
  TGI: > 25 µM
[5]
  GI50: 0.824 µM
  TGI: > 25 µM
[6]
  GI50: 0.885 µM
  TGI: 8.42 µM
[7]
  GI50: 0.867 µM
  TGI: > 25 µM
[8]
  GI50: 0.676 µM
  TGI: 2.59 µM
[56]
  GI50: 0.305 µM
  TGI: 1.01 µM
[9]
  GI50: 0.501 µM
  TGI: 2.81 µM
[10]
  GI50: 0.487 µM
  TGI: > 25 µM
[11]
  GI50: 0.669 µM
  TGI: 6.52 µM
[12]
  GI50: 0.537 µM
  TGI: 1.77 µM
[13]
  GI50: 0.619 µM
  TGI: > 8.38 µM
[14]
  GI50: 0.76 µM
  TGI: 1.76 µM
[15]
  GI50: 0.678 µM
  TGI: 2.02 µM
[16]
  GI50: 0.679 µM
  TGI: 2.92 µM
[17]
  GI50: 1.22 µM
  TGI: 5.81 µM
[18]
  GI50: 0.538 µM
  TGI: > 25 µM
[19]
  GI50: 2.34 µM
  TGI: 14.7 µM
[20]
  GI50: 0.338 µM
  TGI: 1.94 µM
[21]
  GI50: 0.911 µM
  TGI: 2.25 µM
[57]
  GI50: 0.714 µM
  TGI: 2.03 µM
[22]
  GI50: 0.573 µM
  TGI: 1.67 µM
[23]
  GI50: 0.758 µM
  TGI: 4.68 µM
[53]
  GI50: 0.637 µM
  TGI: 2.7 µM
[24]
  GI50: 0.47 µM
  TGI: 2.14 µM
[58]
  GI50: 0.528 µM
  TGI: 3.56 µM
[54]
  GI50: 0.447 µM
  TGI: 2.75 µM
[25]
  GI50: 0.713 µM
  TGI: 1.86 µM
[26]
  GI50: 0.536 µM
  TGI: 2.25 µM
[27]
  GI50: 0.507 µM
  TGI: 2.92 µM
[28]
  GI50: 1.02 µM
  TGI: > 19.5 µM
[29]
  GI50: 0.714 µM
  TGI: > 7.16 µM
[30]
  GI50: 0.519 µM
  TGI: 5.43 µM
[31]
  GI50: 0.677 µM
  TGI: 3.11 µM
[32]
  GI50: 0.011 µM
[33]
  GI50: 0.408 µM
  TGI: 1.13 µM
[34]
  GI50: 0.609 µM
  TGI: 2.61 µM
[35]
  GI50: 0.0104 µM
  TGI: 1.92 µM
[37]
  GI50: 0.664 µM
  TGI: 4.28 µM
[38]
  GI50: 0.481 µM
  TGI: > 15.3 µM
[39]
  GI50: 0.615 µM
  TGI: > 25 µM
[40]
  GI50: 0.512 µM
  TGI: > 6.99 µM
[41]
  GI50: 1.08 µM
  TGI: 4.53 µM
[42]
  GI50: 0.878 µM
  TGI: > 10.4 µM
[43]
  GI50: 0.749 µM
  TGI: 2.76 µM
[44]
  GI50: 0.498 µM
  TGI: 2.2 µM
[59]
  GI50: 0.489 µM
  TGI: 1.03 µM
[46]
  GI50: 0.375 µM
  TGI: 0.929 µM
[47]
  GI50: 0.57 µM
  TGI: 4.05 µM
[48]
  GI50: 0.885 µM
  TGI: > 25 µM
[49]
  GI50: 0.686 µM
  TGI: 1.6 µM
[55]
  GI50: 0.556 µM
  TGI: 1.37 µM
[50]
  GI50: 1.36 µM
  TGI: > 25 µM
[51]
  GI50: 1.1 µM
  TGI: 16 µM
[52]
  GI50: 0.849 µM
  TGI: 16.4 µM
